SMILES strings stand for the structures.

The results in this text go back to US6426229B1, “Chelating agent and detergent comprising the same” (Mitsubishi Rayon Co., Ltd., priority 1995, dated 2002).

The series in a line: Compression strength (hardening property) of powder stored under load for 2 months. The class given is physicochemical. The conditions noted are these: 20-30° C., relative humidity 40-70%. On the procedure:
Method for the Measurement of Compression Strength
(1) A test sample (500 g) is put in a poly-ethylene bag of 20 cm×20 cm in a room at a temperature of 20-30° C. and a relative humidity of 40-70%. The powder is levelled to an area of 20 cm×20 cm and air is forced out of the bag, and, then, the bag is sealed. This bag is further put in a kraft bag and this kraft bag is sealed.
(2) The kraft bag of (1) is placed horizontally on a flat plate and a plate is put thereon. […]
(3) With keeping the temperature of 20-30° C. and the relative humidity of 40-70%, the test sample is taken out after lapse of 2 months from the starting of application of load. Several test pieces (4 cm long×4 cm broad×2 cm high) are cut out from the sample.

Where [1] appears, read: Load 100 (table head [Kg]; text 100 g/cm^2).
Where [2] appears, read: Load 200 (table head [Kg]; text 200 g/cm^2).
Setting [3] is: Load 300 (table head [Kg]; text 300 g/cm^2).

Take `O=C(O)CCN[C@@H](CC(=O)O)C(=O)O` [Example 18, (S)-aspartic acid-N-monopropionic acid]: the “Compression strength after stored for 2 months” value (“Compression strength” below) under setting [1] is given as 1.2 Kg/cm^2.

Consider `O=C(O)C[C@@H](C(=O)O)N(CC(=O)O)CC(=O)O` [Example 19, (S)-aspartic acid-N,N-diacetic acid], for which the “Compression strength” value under setting [1] stood at 1.1 Kg/cm^2.

Regarding `O=C([O-])C[C@@H](C(=O)[O-])N(CC(=O)[O-])CC(=O)[O-].[Na+].[Na+].[Na+].[Na+]` [Example 7, tetrasodium salt of (S)-aspartic acid-N,N-diacetic acid], under setting [1], the “Compression strength” value is 1.3 Kg/cm^2.

On to `O=C(O)CN(CC(=O)O)c1ccccc1C(=O)O` [Example 36, anthranilic acid-N,N-diacetic acid], for which the “Compression strength” value under setting [2] worked out at 0.9 Kg/cm^2.

As to `CN(CC(=O)[O-])CC(=O)[O-].[Na+].[Na+]` [Example 26, disodium N-methyliminodiacetate], under setting [2], the “Compression strength” value is recorded as 1.2 Kg/cm^2.

Regarding `O=C([O-])C[C@H](NCCN[C@@H](CC(=O)[O-])C(=O)[O-])C(=O)[O-].[Na+].[Na+].[Na+].[Na+]` [Example 57, tetrasodium (S,S)-ethylenediaminedisuccinate], under setting [3], the “Compression strength” value is given as 0.9 Kg/cm^2.

For the compound `O=C([O-])CN(CC(=O)[O-])c1ccccc1C(=O)[O-].[Na+].[Na+].[Na+]` [Example 30, trisodium salt of anthranilic acid-N,N-diacetic acid], under setting [1], the “Compression strength” value stood at 1.2 Kg/cm^2.

As for `C[C@@H](C(=O)[O-])N(CC(=O)[O-])CC(=O)[O-].[Na+].[Na+].[Na+]` [compound 4, trisodium salt of (S)-α-alanine-N,N-diacetic acid, reference compound], under setting [1], the “Compression strength” value was determined as 2.8 Kg/cm^2.

As to `O=C([O-])CC(NCCNC(CC(=O)[O-])C(=O)[O-])C(=O)[O-].[Cu+2].[Na+].[Na+]` (stereo not shown) [Example 77, copper disodium ethylenediaminedisuccinate], under setting [2], the “Compression strength” value is recorded as 1.2 Kg/cm^2.

As for `O=C([O-])C[C@H](NCC(O)CN[C@@H](CC(=O)[O-])C(=O)[O-])C(=O)[O-].[Na+].[Na+].[Na+].[Na+]` [Example 50, tetrasodium (S,S)-2-hydroxy-1,3-propanediaminedisuccinate], the “Compression strength” value under setting [2] came to 1.2 Kg/cm^2.

Turning to `O=C(O)C[C@@H](C(=O)O)N(CC(=O)O)CC(=O)O` [compound 7, (S)-aspartic acid-N,N-diacetic acid, reference compound], the “Compression strength” value under setting [1] came out at 2.3 Kg/cm^2.

As for `O=C([O-])C[C@H](NCCN[C@@H](CC(=O)[O-])C(=O)[O-])C(=O)[O-].[Cu+2].[Na+].[Na+]` [Example 80, copper disodium (S,S)-ethylenediaminedisuccinate], the “Compression strength” value under setting [2] turned out to be 1.0 Kg/cm^2.

As to `O=C([O-])C[C@H](NCCN[C@@H](CC(=O)[O-])C(=O)[O-])C(=O)[O-].[Fe+3].[NH4+]` [compound 26, iron ammonium (S,S)-ethylenediaminedisuccinate, reference compound], the “Compression strength” value under setting [1] is listed as 2.7 Kg/cm^2.

As to `O=C(O)CN(CCS(=O)(=O)O)CC(=O)O` [compound 12, taurine-N,N-diacetic acid, reference compound], under setting [1], the “Compression strength” value is reported as 3.3 Kg/cm^2.

As to `O=C(O)C[C@H](NCCN[C@@H](CC(=O)O)C(=O)O)C(=O)O` [compound 22, (S,S)-ethylenediaminedisuccinic acid, reference compound], the “Compression strength” value under setting [1] is listed as 2.5 Kg/cm^2.

`CN(CC(=O)[O-])CC(=O)[O-].[Na+].[Na+]` [compound 10, disodium N-methyliminodiacetate, reference compound]: the “Compression strength” value under setting [1] was determined as 2.6 Kg/cm^2.

As for `O=C([O-])CCN[C@@H](CC(=O)[O-])C(=O)[O-].[Na+].[Na+].[Na+]` [Example 10, trisodium salt of (S)-aspartic acid-N-monopropionic acid], the “Compression strength” value under setting [3] is reported as 1.0 Kg/cm^2.

Regarding `O=C(O)CN(CC(=O)O)c1ccccc1C(=O)O` [compound 14, anthranilic acid-N,N-diacetic acid, reference compound], the “Compression strength” value under setting [1] came to 2.5 Kg/cm^2.

With `O=C([O-])CCN[C@@H](CC(=O)[O-])C(=O)[O-].[Na+].[Na+].[Na+]` [compound 2, trisodium salt of (S)-aspartic acid-N-monopropionic acid, reference compound], under setting [1], the “Compression strength” value is 3.0 Kg/cm^2.

Regarding `O=C([O-])C[C@@H](C(=O)[O-])N(CC(=O)[O-])CC(=O)[O-].[Na+].[Na+].[Na+].[Na+]` [Example 11, tetrasodium salt of (S)-aspartic acid-N,N-diacetic acid], the “Compression strength” value under setting [3] was 0.8 Kg/cm^2.

Turning to `O=C([O-])C[C@@H](C(=O)[O-])N(CC(=O)[O-])CC(=O)[O-].[Na+].[Na+].[Na+].[Na+]` [Example 3, tetrasodium salt of (S)-aspartic acid-N,N-diacetic acid], the “Compression strength” value under setting [2] worked out at 0.9 Kg/cm^2.

Regarding `C[C@@H](C(=O)O)N(CC(=O)O)CC(=O)O` [Example 16, (S)-α-alanine-N,N-diacetic acid], the “Compression strength” value under setting [2] amounted to 0.8 Kg/cm^2.

Turning to `O=C([O-])CN(CCS(=O)(=O)[O-])CC(=O)[O-].[Na+].[Na+].[Na+]` [Example 25, trisodium salt of taurine-N,N-diacetic acid], under setting [2], the “Compression strength” value was 1.1 Kg/cm^2.

For the compound `O=C([O-])C[C@H](NCCN[C@@H](CC(=O)[O-])C(=O)[O-])C(=O)[O-].[Cu+2].[Na+].[Na+]` [compound 27, copper disodium (S,S)-ethylenediaminedisuccinate, reference compound], the “Compression strength” value under setting [1] is 2.8 Kg/cm^2.

Take `O=C([O-])C[C@H](NCC(O)CN[C@@H](CC(=O)[O-])C(=O)[O-])C(=O)[O-].[Na+].[Na+].[Na+].[Na+]` [Example 55, tetrasodium (S,S)-2-hydroxy-1,3-propanediaminedisuccinate]: the “Compression strength” value under setting [1] was 1.2 Kg/cm^2.

With `O=C([O-])C[C@H](NCCN[C@@H](CC(=O)[O-])C(=O)[O-])C(=O)[O-].[Na+].[Na+].[Na+].[Na+]` [Example 52, tetrasodium (S,S)-ethylenediaminedisuccinate], under setting [1], the “Compression strength” value came out at 1.0 Kg/cm^2.

In the case of `O=C(O)C[C@H](NCCN[C@@H](CC(=O)O)C(=O)O)C(=O)O` [Example 66, ethylenediaminedisuccinic acid], the “Compression strength” value under setting [1] turned out to be 0.8 Kg/cm^2.

With `CN(CC(=O)O)CC(=O)O` [Example 41, N-methyliminodiacetic acid], the “Compression strength” value under setting [3] was determined as 1.0 Kg/cm^2.

Regarding `O=C([O-])CN(CC(=O)[O-])c1ccccc1C(=O)[O-].[Fe+3]` [Example 43, iron salt of anthranilic acid-N,N-diacetic acid], under setting [2], the “Compression strength” value is on record as 0.9 Kg/cm^2.

As to `O=C([O-])CN(CCS(=O)(=O)[O-])CC(=O)[O-].[Na+].[Na+].[Na+]` [compound 9, trisodium salt of taurine-N,N-diacetic acid, reference compound], the “Compression strength” value under setting [1] is recorded as 2.5 Kg/cm^2.

For the compound `O=C([O-])CC(NCCCNC(CC(=O)[O-])C(=O)[O-])C(=O)[O-].[Na+].[Na+].[Na+].[Na+]` (stereo not shown) [Example 58, tetrasodium 1,3-propanediaminedisuccinate], under setting [3], the “Compression strength” value was 1.0 Kg/cm^2.

On to `O=C(O)C[C@@H](C(=O)O)N(CC(=O)O)CC(=O)O` [Example 23, (S)-aspartic acid-N,N-diacetic acid], for which, under setting [3], the “Compression strength” value was found to be 1.0 Kg/cm^2.

`C[C@@H](C(=O)[O-])N(CC(=O)[O-])CC(=O)[O-].[Na+].[Na+].[Na+]` [Example 8, trisodium salt of (S)-α-alanine-N,N-diacetic acid]: the “Compression strength” value under setting [1] worked out at 1.0 Kg/cm^2.

Consider `O=C(O)CC(NCCCNC(CC(=O)O)C(=O)O)C(=O)O` (stereo not shown) [Example 63, 1,3-propanediaminedisuccinic acid], for which the “Compression strength” value under setting [2] amounted to 1.1 Kg/cm^2.

For the compound `CN(CC(=O)O)CC(=O)O` [Example 38, N-methyliminodiacetic acid], under setting [1], the “Compression strength” value is reported as 1.1 Kg/cm^2.

With `O=C([O-])CC(NCCNC(CC(=O)[O-])C(=O)[O-])C(=O)[O-].[Na+].[Na+].[Ni+2]` (stereo not shown) [Example 78, nickel disodium ethylenediaminedisuccinate], the “Compression strength” value under setting [2] stood at 1.0 Kg/cm^2.

In the case of `O=C(O)CN(CC(=O)O)c1ccccc1C(=O)O` [Example 39, anthranilic acid-N,N-diacetic acid], under setting [1], the “Compression strength” value was determined as 1.2 Kg/cm^2.

Regarding `O=C([O-])CC(NCCNC(CC(=O)[O-])C(=O)[O-])C(=O)[O-].[Na+].[Na+].[Na+].[Na+]` (stereo not shown) [compound 16, tetrasodium ethylenediaminedisuccinate, reference compound], the “Compression strength” value under setting [1] was determined as 2.8 Kg/cm^2.

As for `O=C([O-])CN(CC(=O)[O-])c1ccccc1C(=O)[O-].[Na+].[Na+].[Na+]` [Example 33, trisodium salt of anthranilic acid-N,N-diacetic acid], the “Compression strength” value under setting [3] was determined as 0.9 Kg/cm^2.

`O=C(O)CN(CC(=O)O)c1ccccc1C(=O)O` [Example 42, anthranilic acid-N,N-diacetic acid]: the “Compression strength” value under setting [3] amounted to 1.1 Kg/cm^2.
